From patent publication US20150335678A1, “METHOD OF ACTIVATING STEM CELLS IN AN ANIMAL AND THE USE OF CHLORINE DIOXIDE FOR PREPARING MEDICINES FOR ACTIVATING STEM CELLS IN AN ANIMAL” (priority 2012, published 2015)

Tests used:
[1] = tested on: chronic eczema; experiment: Chronic eczema patients, topical solution (Example 7); format: in vivo, human
Description: The subjects consisted of 12 patients with chronic eczema and average seven years of course of disease. External used medicines and oral administration, such as glucocorticoid and antihistamine drug were used discontinuously, but were poor in treatment. Activating agent was administered according to the following methods:
To smear solution over the affected parts immediately, once a day for consecutive 10 to 15 days, and then stop administration. If the eczema relapsed, reusing it again.

[2] = tested on: GFAP-positive cells (astrocytes), NeuN-positive cells (immature neurons); experiment: NeuN-positive, GFAP-positive and BrdU-positive/GFAP-positive cells in the SVZ region; format: in vivo, Sprague-Dawley rats
Description: Male Sprague-Dawley rats with the age of 12 weeks and weight of 250^˜280 g were used in the experiment after acclimating for a week.
A middle cerebral artery occlusion model was first established in compliance with the method of Longa E Z et al. (Longa E Z, et al. Reversible middle cerebral artery occlusion without craniectomy in rats. Stroke 20:84-91, 1989). More specifically, 0.36 g/kg of 10% chloral hydrate was administered intraperitoneally to rats which had been fasted for 12 hours (although given free access to water) to anesthetize the rats. Next, a midline incision was made in the neck to expose the right common carotid artery. Then, the internal carotid artery and external carotid artery were separated, the posterior carotid artery, which is a branch of the external carotid artery, and the thyroidea arteria were coagulated and severed, the external carotid artery was ligated at the branch of the lingual artery and maxillary artery, a small puncture was formed in the external carotid artery, 4-0 Nylon suture was passed through the common carotid artery from the puncture, and gradually inserted into the internal carotid artery until there was resistance. The length of the Nylon suture was about 18^˜20 mm from the branch of the common carotid artery. As a result of occluding the middle cerebral artery with Nylon suture, an ischemic state was applied for 2 hours to create a middle cerebral artery occlusion model.
A cerebral ischemia/reperfusion injury model was established by removing the Nylon suture from the middle cerebral artery of the occlusion model and following reperfusion of blood.
The first solution was a mixed solution made of sodium chlorite with the concentration of 7.47% and sodium chloride with the concentration of 1.59% with deionized water; the second solution was made of citric acid with the concentration of 16.7% with deionized water. Same volume of solutions were taken out from different vessels with different volumes and mixed up. Allow the solution to mix for 3-5 minutes and dilute it five times with normal saline, and then filter it with 0.22 μm filter membrane of double-deck. The solution was immediately put into injector. The solution was prepared once being used.
Treatment group (120 rats): A cerebral ischemia/reperfusion injury model was established for the rats already. To administer chlorine dioxide solution everytime that prepared from procedure (3) through carotid artery after the second day the model has established, once a day for total ten days.
On day 5, 6, 12, 13, 19 and 20 after the model established, 50 mg/kg BrdU was injected intraperitoneally into 30 rats in each group. The rats were autopsied on day 7, 14 and 21 after the model established for preparation of frozen brain sections. The presences of NeuN-positive cells by immunochemical stain, glial fibrillory acidic protein (GFAP)-positive cells by immunochemical stain, and BrdU-Positive/GFAP Positive Cells by double-immunofluorescent stain in the SVZ region were analyzed. NeuN is a marker expressed on the immature neurons which are differentiated from neural stem cells. GFAP is a marker expressed on astrocytes which are also differentiated from neural stem cells.
The presence of NeuN-positive cells was analyzed using goat anti-NeuN monoclonal antibody. The presence of GFAP-positive cells was analyzed using goat anti-GFAP polyclonal antibody. The presence of BrdU-positive/GFAP-positive cells was analyzed by double-immunofluorescent stain using a combination of primary antibody of mouse anti-rat BrdU monoclonal antibody and secondary antibody of Rho-labeled rabbit anti-mouse antibody, and a combination of primary antibody of goat anti-GFAP polyclonal antibody and secondary antibody of FITC-labeled rabbit anti-goat antibody.
BRt(%)=(Bt−St)/(Mt−St)×100

[3] = tested on: scar; experiment: Patients with scar, topical solution with dimethyl sulfoxide (Example 13); format: in vivo, human; details: 20 patients with scar
From the text: The subjects consisted of 20 patients with scar, including 7 male and 13 female (average age: 33 years old.) There are five cases with burn scar, 7 cases with scars resulting from accidental injury, 5 cases with surgical scar, 3 cases with scar from skin disease. The average course of disease is about 3 years.
Then the solution was immediately smeared over the scar, once a day for 10-15 days consecutively then stops administration. The second administration began 1-2 months after drug withdrawal of the first administration, once a day for consecutive 5-10 days.
To observe the effects a month after first administration and second administration. The effects were measured according to pain, stiffness and hyperpigmentation around.
specific criteria: obvious pain (+++), moderate pain (++), mild pain (+) no pain (−). stiffness of scar: can't sunken with hard pressing, (+++) can sunken with moderate pressing, (++), complete depression with mild pressing (+). Same character with normal skin (−). hyperpigmentation around: >2 cm, (+++), 1˜2 cm (++), <1 cm (+), 0 (−)
Measurement of clinical effect: excellent: no pain, and the stiffness is the same to normal skin with no hyperpigmentation around. effective: the indicators of pain, stiffness and hyperpigmentation are (+)˜(++); ineffective: one of the indicators of pain, stiffness and hyperpigmentation is (+++).

[4] = 12 cases traced for eight months
[5] = a month after first administration
[6] = a month after second administration

Q: Which results are given for `[O][Cl+][O-]` [chlorine dioxide solution, chlorine dioxide]?
A: cases that recurred once and did not recur after treatment for two times [1, 4]: four; cases that recurred twice and did not recur after the third treatment [1, 4]: two; cases with no recurrence [1, 4]: six; clinical sign and pathological change of tissue after treatment ([1]; 12 chronic eczema patients): became normal; time until stabbing pain and itching disappeared after administration ([1]; 12 chronic eczema patients, NaClO2 8%/NaCl 2% + citric acid 12% 1:1, smeared once a day 10 to 15 days): about half an hour; time until the affected parts scabbed ([1]; 12 chronic eczema patients, topical once a day): two to five days; BRt: GFAP-positive cells in treatment group relative to model group = 100% ([2]; Day 7): 148.4%; number of GFAP-positive cells in the SVZ (mean±SD) ([2]; Day 7, model group 66.3 ± 21.3, sham 2.5 ± 0.15, diluted solution via carotid artery once a day, ten days): 97.2 ± 29.3 No. of cells/mm2; BRt: GFAP-positive cells in treatment group relative to model group = 100% ([2]; Day 14): 134.3%; number of GFAP-positive cells in the SVZ (mean±SD) ([2]; Day 14, model group 58.6 ± 16.5, sham 1.39 ± 0.02): 78.2 ± 19.6 No. of cells/mm2; BRt: GFAP-positive cells in treatment group relative to model group = 100% ([2]; Day 21): 162.4%; number of GFAP-positive cells in the SVZ (mean±SD) ([2]; Day 21, model group 27.9 ± 12.4, sham 0): 45.3 ± 18.3 No. of cells/mm2; presence of NeuN-positive cells (immature neurons) ([2]; treatment group, data not shown): confirmed; presence of BrdU-positive/GFAP-positive cells in the SVZ region ([2]; treatment group, double-immunofluorescent stain, data not shown): confirmed; ineffective (%) [3, 5]: 25%; ineffective (No.) [3, 5]: 5; total efficiency (%) [3, 5]: 30%; total efficiency (No.) [3, 5]: 6; Efficiency rate (No.) ([3]; a month after first administration, NaClO2 10%/NaCl 2.5% + citric acid 20% 1:1, DMSO 1:1, smeared once a day 10-15 days): 9; Efficiency rate (%) ([3]; a month after first administration, topical with DMSO): 45%; Efficiency rate (No.) ([3]; a month after second administration (once a day 5-10 days, 1-2 months after the first)): 15; Efficiency rate (%) [3, 6]: 75%; ineffective (No.) [3, 6]: 0; total efficiency (%) [3, 6]: 25%; total efficiency (No.) [3, 6]: 5
